Experimental data reported in patent publication US9695103B2 (priority 2014, dated 2017).
Several values for one entry are separate records, joined by “and”; a condition that tells them apart may be missing. Identical values can stand only once.

What was measured:
daphnias = assay: Biocidal activity against crustaceans (daphnias), FR. 1.39.2007,03223 procedure; settings: test time 96 h; for Number of survived daphnias (the average over parallel set of samples), Test sample: control sample 10
E. coli No. 906 = assay: Bactericidal activity: exposure of bacterial culture in salt solution, neutralization, inoculation on solid nutrient medium; type: cell-based; set-up: key: NG - no growth; CG - confluent growth
S. aureus No. 1257 = assay: as above; type: cell-based; set-up: key: NG - no growth; CG - confluent growth
[1] = tested on: clinical strain P. aeruginosa; assay: as above; type: cell-based; set-up: key: NG - no growth; CG - confluent growth
fungal spores = assay: Fungicidal activity according to GOST 30028.4-2006, resistance of treated materials to fungal spores; type: cell-based; settings: additive content 5 % wt.
[2] = tested on: E. coli No. 906, S. aureus No. 1257, clinical strain P. aeruginosa; assay: Bactericidal activity, summary statement over investigated strains; type: cell-based; settings: concentration of 2.0%, time of exposure from 30 min
[3] = 0.00001 % wt. in aqueous medium
[4] = Paper impregnated with latex SKS 65 GP

With C=CC(=O)[O-].O=C([O-])c1ccccc1.[Cu+2] [Copper acrylate-benzoate, reference compound] the “Daphnia death rate in test sample, % of control sample” value (from here on “Daphnia death rate in test sample, %”) (daphnias; [3]) was 0 % of control sample, the “Number of survived daphnias (the average over parallel set of samples), Test sample” value (daphnias; [3]) was 10 and the “Daphnia death rate in test sample, %” value (daphnias; 0.0001 % wt. in aqueous medium) was 0 % of control sample. The “Number of survived daphnias (the average over parallel set of samples), Test sample” value (daphnias; 0.0001 % wt. in aqueous medium) was 10, the “Daphnia death rate in test sample, %” value (daphnias; 0.001 % wt. in aqueous medium) was 0 % of control sample and the “Number of survived daphnias (the average over parallel set of samples), Test sample” value (daphnias; 0.001 % wt. in aqueous medium) was 10. For the same molecule, the “Daphnia death rate in test sample, %” value (daphnias; 0.01 % wt. in aqueous medium) was 0 % of control sample, the “Number of survived daphnias (the average over parallel set of samples), Test sample” value (daphnias; 0.01 % wt. in aqueous medium) was 10 and the “Daphnia death rate in test sample, %” value (daphnias; 0.1 % wt. in aqueous medium) was 10 % of control sample. The “Number of survived daphnias (the average over parallel set of samples), Test sample” value (daphnias; 0.1 % wt. in aqueous medium) was 9, the “Daphnia death rate in test sample, %” value (daphnias; 1 % wt. in aqueous medium) was 20 % of control sample and the “Number of survived daphnias (the average over parallel set of samples), Test sample” value (daphnias; 1 % wt. in aqueous medium) was 8.
C=CC(=O)[O][Cu][O]C(=O)C(O)C(O)C(=O)O (centres unmarked) [Copper acrylate-tartrate] was tested, and the “Bactericidal activity, growth of E. coli 906” value (E. coli No. 906; 1.5 % wt., exposure 60 min) was “NG”, the “Bactericidal activity, growth of E. coli 906” value (E. coli No. 906; 2.0 % wt., exposure 5 min) was “NG” and the “Bactericidal activity, growth of E. coli 906” value (E. coli No. 906; 2.0 % wt., exposure 15 min) was “NG”. The “Bactericidal activity, growth of E. coli 906” value (E. coli No. 906; 2.0 % wt., exposure 30 min) was “NG”, the “Bactericidal activity, growth of E. coli 906” value (E. coli No. 906; 2.0 % wt., exposure 60 min) was “NG” and the “Bactericidal activity, growth of E. coli 906” value (E. coli No. 906; 3.0 % wt., exposure 5 min) was “NG”. For the same molecule, the “Bactericidal activity, growth of E. coli 906” value (E. coli No. 906; 3.0 % wt., exposure 15 min) was “NG”, the “Bactericidal activity, growth of E. coli 906” value (E. coli No. 906; 3.0 % wt., exposure 30 min) was “NG” and the “Bactericidal activity, growth of S. aureus 1257” value (S. aureus No. 1257; 1.5 % wt., exposure 60 min) was “NG”. For the same molecule, the “Bactericidal activity, growth of S. aureus 1257” value (S. aureus No. 1257; 2.0 % wt., exposure 5 min) was “NG”, the “Bactericidal activity, growth of S. aureus 1257” value (S. aureus No. 1257; 2.0 % wt., exposure 15 min) was “NG” and the “Bactericidal activity, growth of S. aureus 1257” value (S. aureus No. 1257; 2.0 % wt., exposure 30 min) was “NG”. For the same molecule, the “Bactericidal activity, growth of S. aureus 1257” value (S. aureus No. 1257; 2.0 % wt., exposure 60 min) was “NG”, the “Bactericidal activity, growth of S. aureus 1257” value (S. aureus No. 1257; 3.0 % wt., exposure 5 min) was “NG” and the “Bactericidal activity, growth of S. aureus 1257” value (S. aureus No. 1257; 3.0 % wt., exposure 15 min) was “NG”. For the same molecule, the “Bactericidal activity, growth of S. aureus 1257” value (S. aureus No. 1257; 3.0 % wt., exposure 30 min) was “NG”, the “Bactericidal activity, growth of P. aeruginosa” value ([1]; 1.5 % wt., exposure 30 min) was “CG” and the “Bactericidal activity, growth of P. aeruginosa” value ([1]; 1.5 % wt., exposure 60 min) was “CG”. The “Bactericidal activity, growth of P. aeruginosa” value ([1]; 2.0 % wt., exposure 5 min) was “CG”, the “Bactericidal activity, growth of P. aeruginosa” value ([1]; 2.0 % wt., exposure 15 min) was greater than 300 CFU and the “Bactericidal activity, growth of P. aeruginosa” value ([1]; 2.0 % wt., exposure 60 min) was “NG”. The “Bactericidal activity, growth of P. aeruginosa” value ([1]; 3.0 % wt., exposure 5 min) was “NG”, the “Bactericidal activity, growth of P. aeruginosa” value ([1]; 3.0 % wt., exposure 15 min) was “NG” and the “Bactericidal activity, growth of P. aeruginosa” value ([1]; 3.0 % wt., exposure 30 min) was “NG”. For the same molecule, the Tolerance time (fungal spores; [4]) was 16 days, the Tolerance time (fungal spores; Polyvinyl chloride emulsion) was 17 days and the “bactericidal effect against investigated strains” value (“bactericidal effect” for short) [2] was “stable bactericidal effect”.
Molecule C=CC(=O)[O][Zn][O]C(=O)C(O)(CC(=O)O)CC(=O)O [Zinc acrylate-citrate] has a Tolerance time (fungal spores; Polyvinyl chloride emulsion) of 17 days.
C=CC(=O)[O-].CC(O)C(=O)[O-].[Zn+2] (centres unmarked) [Zinc acrylate-lactate] was tested, and the “Daphnia death rate in test sample, %” value (daphnias; 0.0001 % wt. in aqueous medium) was 90 % of control sample, the “Number of survived daphnias (the average over parallel set of samples), Test sample” value (daphnias; 0.0001 % wt. in aqueous medium) was 1 and the “Daphnia death rate in test sample, %” value (daphnias; 0.001 % wt. in aqueous medium) was 100 % of control sample and 70 % of control sample. The “Daphnia death rate in test sample, %” value (daphnias; 0.01 % wt. in aqueous medium) was 100 % of control sample, the “Number of survived daphnias (the average over parallel set of samples), Test sample” value (daphnias; 0.01 % wt. in aqueous medium) was 0 and the “Daphnia death rate in test sample, %” value (daphnias; 0.1 % wt. in aqueous medium) was 100 % of control sample. For the same molecule, the “Number of survived daphnias (the average over parallel set of samples), Test sample” value (daphnias; 0.1 % wt. in aqueous medium) was 0, the “Daphnia death rate in test sample, %” value (daphnias; 1 % wt. in aqueous medium) was 100 % of control sample and the “Number of survived daphnias (the average over parallel set of samples), Test sample” value (daphnias; 1 % wt. in aqueous medium) was 0.
C=CC(=O)[O][Zn][O]C(=O)CC(=O)O [Zinc acrylate-malonate] was tested, and the “Bactericidal activity, growth of E. coli 906” value (E. coli No. 906; 1.5 % wt., exposure 5 min) was greater than 300 CFU, the “Bactericidal activity, growth of E. coli 906” value (E. coli No. 906; 1.5 % wt., exposure 15 min) was 78 CFU and the “Bactericidal activity, growth of E. coli 906” value (E. coli No. 906; 1.5 % wt., exposure 30 min) was 45 CFU and 53 CFU. For the same molecule, the “Bactericidal activity, growth of E. coli 906” value (E. coli No. 906; 1.5 % wt., exposure 60 min) was 5 CFU and 4 CFU, the “Bactericidal activity, growth of E. coli 906” value (E. coli No. 906; 2.0 % wt., exposure 5 min) was 1 CFU and the “Bactericidal activity, growth of E. coli 906” value (E. coli No. 906; 2.0 % wt., exposure 15 min) was “NG”. For the same molecule, the “Bactericidal activity, growth of E. coli 906” value (E. coli No. 906; 2.0 % wt., exposure 30 min) was “NG”, the “Bactericidal activity, growth of E. coli 906” value (E. coli No. 906; 2.0 % wt., exposure 60 min) was “NG” and the “Bactericidal activity, growth of S. aureus 1257” value (S. aureus No. 1257; 1.5 % wt., exposure 5 min) was greater than 300 CFU. The “Bactericidal activity, growth of S. aureus 1257” value (S. aureus No. 1257; 1.5 % wt., exposure 15 min) was 85 CFU, the “Bactericidal activity, growth of S. aureus 1257” value (S. aureus No. 1257; 1.5 % wt., exposure 30 min) was 35 CFU and 43 CFU and the “Bactericidal activity, growth of S. aureus 1257” value (S. aureus No. 1257; 2.0 % wt., exposure 5 min) was “NG”. For the same molecule, the “Bactericidal activity, growth of S. aureus 1257” value (S. aureus No. 1257; 2.0 % wt., exposure 15 min) was “NG”, the “Bactericidal activity, growth of S. aureus 1257” value (S. aureus No. 1257; 2.0 % wt., exposure 30 min) was “NG” and the “Bactericidal activity, growth of S. aureus 1257” value (S. aureus No. 1257; 2.0 % wt., exposure 60 min) was “NG”. For the same molecule, the Tolerance time (fungal spores; [4]) was 20 days, the Tolerance time (fungal spores; Polyvinyl chloride emulsion) was 18 days and the “bactericidal effect” value [2] was “stable bactericidal effect”.
Molecule C=C(C)C(=O)O.O=C([O-])CC(O)C(=O)[O-].[Zn+2] (centres unmarked) [Zinc methacrylate-malate] has a Tolerance time (fungal spores; Polyvinyl chloride emulsion) of 9 days.
copper methacrylate-glycolate was tested, and the “Bactericidal activity, growth of E. coli 906” value (E. coli No. 906; 1.5 % wt., exposure 30 min) was “CG”, the “Bactericidal activity, growth of E. coli 906” value (E. coli No. 906; 1.5 % wt., exposure 60 min) was greater than 300 CFU and the “Bactericidal activity, growth of E. coli 906” value (E. coli No. 906; 2.0 % wt., exposure 5 min) was “CG”. For the same molecule, the “Bactericidal activity, growth of E. coli 906” value (E. coli No. 906; 2.0 % wt., exposure 15 min) was greater than 300 CFU, the “Bactericidal activity, growth of E. coli 906” value (E. coli No. 906; 2.0 % wt., exposure 30 min) was “NG” and the “Bactericidal activity, growth of E. coli 906” value (E. coli No. 906; 2.0 % wt., exposure 60 min) was “NG”. The “Bactericidal activity, growth of E. coli 906” value (E. coli No. 906; 3.0 % wt., exposure 5 min) was “NG”, the “Bactericidal activity, growth of E. coli 906” value (E. coli No. 906; 3.0 % wt., exposure 15 min) was “NG” and the “Bactericidal activity, growth of E. coli 906” value (E. coli No. 906; 3.0 % wt., exposure 30 min) was “NG”. For the same molecule, the “Bactericidal activity, growth of S. aureus 1257” value (S. aureus No. 1257; 1.5 % wt., exposure 30 min) was “CG”, the “Bactericidal activity, growth of S. aureus 1257” value (S. aureus No. 1257; 1.5 % wt., exposure 60 min) was greater than 300 CFU and the “Bactericidal activity, growth of S. aureus 1257” value (S. aureus No. 1257; 2.0 % wt., exposure 5 min) was “CG”. For the same molecule, the “Bactericidal activity, growth of S. aureus 1257” value (S. aureus No. 1257; 2.0 % wt., exposure 15 min) was greater than 300 CFU, the “Bactericidal activity, growth of S. aureus 1257” value (S. aureus No. 1257; 2.0 % wt., exposure 30 min) was “NG” and the “Bactericidal activity, growth of S. aureus 1257” value (S. aureus No. 1257; 2.0 % wt., exposure 60 min) was “NG”. For the same molecule, the “Bactericidal activity, growth of S. aureus 1257” value (S. aureus No. 1257; 3.0 % wt., exposure 5 min) was “NG”, the “Bactericidal activity, growth of S. aureus 1257” value (S. aureus No. 1257; 3.0 % wt., exposure 15 min) was “NG” and the “Bactericidal activity, growth of S. aureus 1257” value (S. aureus No. 1257; 3.0 % wt., exposure 30 min) was “NG”. The “Bactericidal activity, growth of P. aeruginosa” value ([1]; 1.5 % wt., exposure 30 min) was “CG”, the “Bactericidal activity, growth of P. aeruginosa” value ([1]; 1.5 % wt., exposure 60 min) was “CG” and the “Bactericidal activity, growth of P. aeruginosa” value ([1]; 2.0 % wt., exposure 5 min) was “CG”. For the same molecule, the “Bactericidal activity, growth of P. aeruginosa” value ([1]; 2.0 % wt., exposure 15 min) was greater than 300 CFU, the “Bactericidal activity, growth of P. aeruginosa” value ([1]; 2.0 % wt., exposure 60 min) was “NG” and the “Bactericidal activity, growth of P. aeruginosa” value ([1]; 3.0 % wt., exposure 5 min) was “NG”. The “Bactericidal activity, growth of P. aeruginosa” value ([1]; 3.0 % wt., exposure 15 min) was “NG”, the “Bactericidal activity, growth of P. aeruginosa” value ([1]; 3.0 % wt., exposure 30 min) was “NG” and the Tolerance time (fungal spores; [4]) was 8 days. For the same molecule, the Tolerance time (fungal spores; Paper impregnated with petrolatum base) was 8 days, the Tolerance time (fungal spores; Polyvinyl chloride emulsion) was 10 days and the “Number of survived daphnias (the average over parallel set of samples), Test sample” value (daphnias; [3]) was 1. The “Number of survived daphnias (the average over parallel set of samples), Test sample” value (daphnias; 0.0001 % wt. in aqueous medium) was 0, the “Number of survived daphnias (the average over parallel set of samples), Test sample” value (daphnias; 0.001 % wt. in aqueous medium) was 0 and the “Number of survived daphnias (the average over parallel set of samples), Test sample” value (daphnias; 0.01 % wt. in aqueous medium) was 0. For the same molecule, the “Number of survived daphnias (the average over parallel set of samples), Test sample” value (daphnias; 0.1 % wt. in aqueous medium) was 0, the “Number of survived daphnias (the average over parallel set of samples), Test sample” value (daphnias; 1 % wt. in aqueous medium) was 0 and the “bactericidal effect” value [2] was “stable bactericidal effect”.
